Laboratory results published in patent publication US8778966B2, “Quinolinone derivatives as PARP and tank inhibitors” (Janssen Pharmaceutica, NV, priority 2007, dated 2014).

Each compound was assayed on HCT116 cells (assay: Mitotic arrest assay on HCT116 cells (phospho-histone H3 Ser10)). Settings: Homo sapiens, HCT-116, HCT116 cells; lowest active dose; read-out: Mitotic arrest HCT116 LAD (converted).
Assay type: cell-based, human
Source text: Phosphorylation of histone H3 is tightly correlated with chromosome condensation during both mitosis and meiosis. The assay is a cellular immunosorbent assay wherein the sole antibody is labelled with a detectable conjugate. The phospho-histone H3 (ser10) antibody detects endogenous levels of histone H3 only when phosphorylated at serine 10. […] In parallel with antibody detection, the nuclei of the cells are stained with Hoechst 33342 for cell-counting. Cells are detected and analysed using the InCell Analyzer 1000 from GE Healthcare. Since both the antibody-detection as well as the Hoechst-staining are in the nucleus, the dual area object intensity algorithm is used for analysing the wells.
All compounds tested were dissolved in DMSO and further dilutions were made in culture medium. Final DMSO concentrations never exceeded 0.1% (v/v).
HCT116 cells (supplier: ATCC) (human colon carcinoma cell line) were cultivated in Mc Coy's 5 A medium (supplier: Gibco) supplemented with 10% foetal calf serum (FCS), 2 mM L-glutamine and gentamycin at 37° C. in a humidified incubator with 5% CO2.
HCT116 cells were seeded at 20.000 cells per well in a 96 well plate (black/clear bottom, poly-D-lysine coated, supplier Greiner), cultured overnight to adhere to the bottom of the plate and treated with compound for 6 hours at 37° C. in a humidified incubator. After incubation, the medium was removed and cells were fixed using 100 μl/well formaldehyde (Accustain®, Formaline solution 10% neutral buffered, contains 4% formaldehyde w/v, supplier: Sigma) was added. After incubation for 15 minutes at room temperature, the formaldehyde was removed and cells were incubated with methanol (−20° C.) for 15 minutes at room temperature. After incubation, cells were washed once with phosphate-buffered saline (PBS —CaCl2, —MgCl2, suppier: Gibco)/0.05% Tween 20. The anti-phospho-histone H3 (Ser10) Alexa Fluor 488 antibody (supplier: Cell signalling) is used for detection of the cells inmitosis. The antibody was diluted 1/50 in 5% bovine serum albumins (BSA) and 50 μl/well was used for incubation overnight at room temperature in the dark.
A 1/2000 dilution of Hoechtst 33342 (10 mg/ml, supplier: Invitrogen) was made and 100 μl/well was added for at least 30 minutes before acquiring images. The absorbance at dual wavelengths of 360/480 nm was measured using the InCell Analyzer 1000 from GE Healthcare and the results were then analyzed.
For each experiment, controls (containing no drug) and a blank incubation (containing no cells or drugs) were run in parallel. Analysis was done in triplicate. Low cell count wells were invalidated. The blank value was subtracted from all control and sample values and divided by the standard deviation of the measurements. The compounds were considered active when the obtained value (sigma) was >5. Herein the effects of test compounds are expressed as the lowest dose giving a sigma value of >5 (LAD) (see table F-2).

Compared with `CCc1cc2ccc(C(C)(C#N)Cc3cccc(-c4cnn(C)c4)c3)cc2[nH]c1=O` (centres unmarked) [Compound 17], `CCc1cc2ccc(C(C)(C#N)Cc3cccc(-c4ccccc4)c3)cc2[nH]c1=O` (centres unmarked) [Compound 18] is 3.2-fold lower in minimal effective concentration: 1 µM for the first, 0.316 µM for the second.

Compared with `CCc1cc2ccc(C(C)(C#N)Cc3cccc(I)c3)cc2[nH]c1=O` (centres unmarked) [Compound 19], `CCc1cc2ccc(C(C)(C#N)Cc3cccc(O)c3)cc2[nH]c1=O` (centres unmarked) [Compound 22] is 32-fold higher in minimal effective concentration: 0.1 µM for the first, 3.16 µM for the second.

Going from `CCc1cc2ccc(C(C)(C#N)Cc3cccc(N(C)C)c3)cc2[nH]c1=O` (centres unmarked) [Compound 20] to `CCc1cc2ccc(C(C)(C#N)Cc3cccc(OCCOC)c3)cc2[nH]c1=O` (centres unmarked) [Compound 24], the minimal effective concentration rises from 0.1 µM to 1 µM (10-fold).

First: CCc1cc2ccc(C(C)(C#N)Cc3cccc(N4CCOCC4)c3)cc2[nH]c1=O (centres unmarked) [Compound 21]
Second: CCc1cc2ccc(C(C)(C#N)Cc3cccc(OCc4ccccc4)c3)cc2[nH]c1=O (centres unmarked) [Compound 23]
The minimal effective concentration of the first is 3.2-fold lower: 0.316 µM for the first, 1 µM for the second.
